Reference: US20260216352A1, “DIRECTED BIOSYNTHESIS OF MODIFIED ANTHRAQUINONE-FUSED ENEDIYNES AS POTENTIAL CANCER THERAPEUTICS” (The Johns Hopkins University, priority 2023, published 2026)

Legend:
[1] = test system: transplantable cervical carcinoma HeLa, leukemia P388, L-1210 and melanoma B16; conditions: cited from earlier work
[2] = test system: cancer cells; conditions: read-out: In vitro IC50; cited from earlier work
[3] = test system: wild type M. chersina; test: Small-scale supplementation of wild type M. chersina fermentation and analysis of dynemicin A production; design: species or system Micromonospora chersina; conditions: for Restoration of Dyn production: wild type M. chersina, no added NaI / sodium halide in the fermentation medium
Description: Samples cut from medium 53 agar were used to inoculate 50 mL liquid medium 53 cultures. The cultures were shaken at 28° C. for seven days. Then, samples from these vegetative cultures were used to inoculate H881 media (10 g/L soluble starch, 5 g/L Pharmamedia, 1 g/L CaCO3, 0.05 g/L CuSO4·5 H2O and 0.0005 g/L NaI) for fermentation. These cultures were then shaken at 28° C. for 7 days.
Samples (5 mL) of fermentations were extracted with 5 mL of ethyl acetate by vortexing the emulsion for one minute and separating the layers by centrifugation at 4000×g. The ethyl acetate layer (4 mL) was isolated and dried by SpeedVac at room temperature. The residue was then resuspended in 200 μL of dimethyl sulfoxide and filtered through 0.2 μm polytetrafluoroethylene filters for analysis on an Agilent 1200 HPLC equipped with a Phenomenex Prodigy ODS3 100 Å, 5 μm, 250×4.6 mm column. Injections were 30 μL and separated with a gradient method increasing from 5% to 95% acetonitrile supplemented with 0.1% formic acid over 40 min, followed by a 10 min hold at 95% acetonitrile before re-equilibration. The method was run at 1 mL/min and monitored at 280, 375, 450 and 570 nm.
Wild type M. chersina mycelial stock […] was plated on med 53, Lam et al., 1995, with 2% agar and grown at 28° C. After 7 d, mycelia from the plate were inoculated into 50 mL med 53 liquid fermentation medium in a 125 mL Erlenmeyer flask and shaken at 250 rpm at 28° C. for another 7 d. This starter culture (2 mL) was inoculated into 50-mL H881 liquid medium, Lam et al., 1995, with or without added NaI (0.5 mg/L) in 250-mL Erlenmeyer flask and shaken at 250 rpm and 28° C. After 24 h, […] of 2-mM stock solutions of 5, 13 and 25 in DMSO (sterile filtered using 0.2-μm PTFE filters) were added to the respective flasks with or without NaI supplementation to provide a final concentration of the added compounds of […]. After shaking at 250 rpm and 28° C. for another 2 d, Diaion® HP-20 (0.50 g, sterilized by autoclave) was added to each flask and shaking was continued for another 4 d. After a total 7 d of fermentation, 5 mL from each sample was extracted with 5 mL of EtOAc by vortexing for 1 min. Extracts were centrifuged at 4000×g and 4° C. for 5 min, and 4 mL of each EtOAc layer was dried by SpeedVac without heating. Samples were dissolved in 200 μL DMSO, filtered through 0.2 μm PTFE filters and analyzed on an Agilent 1200 HPLC using a Prodigy ODS3 100 Å, […], 250×4.6 mm column (Phenomenex). A gradient method of 5-95% ACN+0.1% (v/v) formic acid over 40 min, followed by 10 min hold at 95% ACN before column re-equilibration was used at a 1 mL/min flow rate to achieve separation of metabolites. Production of dynemicin and other related metabolites was monitored at 280 nm, 450 nm, and 570 nm. […]

[4] = assay type: physicochemical
Text: With the indication that substituents larger than two carbons probably are not tolerated by the mutasynthetic approach, we focused on repurposing the methyl ketone to generate other smaller substituents. […] Removal of the acetyl protecting group in refluxing HCl-ethanol solution provided the 9-amino-5-iodoanthracene-g-thiolactone 45 (Scheme 4). Incorporation of 45 in a Δorf15 fermentation was again successful, as hoped, producing deshydroxy amino-DYN analogue 50 as the major product, accompanied by the low production of the desdihydroxy DYN analogue 51 (FIG. 31).

Compound	In vivo ID50 [1] [mg/kg]	IC50 [2] [µM]	Restoration of Dyn production [3]	also measured
Neocarzinostatin	0.38	0.225 to 0.9	–	–
O=C1Sc2c3ccccc3cc3c(I)ccc1c23 [iodoanthracene 5, 5-Iodo-2H-anthra[9,1-bc]thiophen-2-one]	–	–	fully restored Dyn production	–
O=C1Sc2c3ccccc3cc3c(Br)ccc1c23 [bromoanthracene 13, 5-Bromo-2H-anthra[9,1-bc]thiophen-2-one]	–	–	not restored	Effect on Dyn production ([3]; wild type M. chersina fermentation medium with added sodium iodide, increasing concentrations of 13): decrease Dyn production
Nc1ccc2cc3c(I)ccc4c3c(c2c1)SC4=O [Compound 45, 9-Amino-5-iodo-2H-anthra[9,1-bc]thiophen-2-one]	–	–	–	Oxidative stability [4]: oxidatively unstable
Calicheamicins	0.0005 to 0.0015	0.006 to 0.009	–	–
Nc1ccc2c3c(c4ccccc4cc13)SC2=O [aminoanthracene 25, 5-Amino-2H-anthra[9,1-bc]thiophen-2-one]	–	–	failed to rescue Dyn production	–
